This is an account of results in patent US6914158B2, “Amidino compounds useful as nitric oxide synthase inhibitors” (Pharmacia Corporation, priority 2000, dated 2005).

The structures appear in SMILES notation. Counter-ions that a name gives are not always drawn.

In this experiment the target is T1, iNOS in human cartilage explants (Homo sapiens, UniProt P35228).
T1 construct: from tissue; host or cells: human cartilage explants stimulated with recombinant human IL-1β
Kind of experiment: Human cartilage explant assay (IL-1β-induced nitrite production). The experiment is classed as cell-based. The following applies: inhibition of nitrite production, IL-1β-stimulated explants; averages across all experiments and all lots.

Procedure: Human Cartilage Explant Assay
Cartilage was cut into small explants of approximately 15-45 mg in weight and one or two explants per well are placed into either 96 or 48 well culture plates with 200-500 μL of culture media per well. The culture media was either a custom modification of Minimum Essential Medium(Eagle) with Earle's salts (GibcoBRL) prepared without L-Arginine, without L-Glutamine and without phenol red or a custom modification of serumless Neuman and Tytell (GibcoBRL) medium prepared without L-arginine, without insulin, without ascorbic acid, without L-glutamine and without phenol red. Both are supplemented before use with 100 μM L-Arginine (Sigma), 2 mM L-glutamine, 1×HL-1 supplement (BioWhittaker), 50 mg/ml ascorbic acid (Sigma) and 150 pg/ml recombinant human IL-1β (RD Systems) to induce nitric oxide synthase. Compounds are then added in 10 μL aliquots and the explants incubated at 37° C. with 5% CO2 for 18-24 hours. The day old supernatant is then discarded and replaced with fresh culture media containing recombinant human IL-1β and compound and incubated for another 20-24 hours. This supernatant is analyzed for nitrite with a fluorometric assay (Misko et al, Anal. Biochem., 214, 11-16, 1993). […] IC50 values (Table 1) are determined from plotting the percent inhibition of nitrite production at six different concentrations of inhibitor.

In the case of `CC(=N)NCCSC[C@](C)(N)C(=O)O` [Example 1, S-[2-[(1-Iminoethyl)amino]ethyl]-2-methyl-L-cysteine, dihydrochloride], half-maximal inhibition (IC50) was put at 700 nM.

Turning to `CC(=N)NCCSCC(C)(N)C(=O)O` (stereo not drawn) [Example 16, S-[2-(1-Iminoethylamino)ethyl]-2-methyl-(D/L)-cysteine, bistrifluoroacetate], the half-inhibitory concentration (IC50) (commonly the concentration needed to halve the response being measured) was 700 nM.
